According to PubChem BioAssay AID248 (DTP/NCI, 2004):
Values joined by “and” are separate entries in the source; they are usually repeats but may differ in a detail not shown here. Identical values can stand only once. Toxic doses and inconclusive results are not listed. Cut-off read from the data, not from the text of the source: active = T/C of 150% or more; inactive = T/C below 125%.

System: L1210 leukemia ip in BDF1 mice, survival T/C
Test: NCI In Vivo Anticancer Drug Screen. Data for tumor model L1210 Leukemia (intraperitoneal) in B6D2F1 (BDF1) mice
Details: endpoint: mean survival time, higher = longer survival
Method in brief: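 Value reflects the ratio of survival in compound-treated mice to survival in vehicle-treated controls, with both groups carrying the same transplanted tumor.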

[1] = dose: 50.0 mg/kg/injection, schedule: Q01DX001 (ip), vehicle: saline
[2] = dose: 100.0 mg/kg/injection, schedule: Q01DX001 (ip), vehicle: saline
[3] = dose: 100.0 mg/kg/injection, schedule: Q04DX003 (ip), vehicle: saline with Tween-80
[4] = dose: 200.0 mg/kg/injection, schedule: Q01DX001 (ip), vehicle: saline
[5] = dose: 200.0 mg/kg/injection, schedule: Q04DX003 (ip), vehicle: saline with Tween-80
[6] = dose: 400.0 mg/kg/injection, schedule: Q01DX001 (ip), vehicle: saline
[7] = dose: 400.0 mg/kg/injection, schedule: Q04DX003 (ip), vehicle: saline with Tween-80
[8] = dose: 100.0 mg/kg/injection, schedule: Q04DX003 (ip), vehicle: saline
[9] = dose: 200.0 mg/kg/injection, schedule: Q04DX003 (ip), vehicle: saline
[10] = dose: 50.0 mg/kg/injection, schedule: Q01DX001 (ip), vehicle: carboxymethylcellulose (CMC)
[11] = dose: 100.0 mg/kg/injection, schedule: Q01DX001 (ip), vehicle: carboxymethylcellulose (CMC)
[12] = dose: 200.0 mg/kg/injection, schedule: Q01DX001 (ip), vehicle: carboxymethylcellulose (CMC)
[13] = dose: 400.0 mg/kg/injection, schedule: Q01DX001 (ip), vehicle: carboxymethylcellulose (CMC)
[14] = dose: 25.0 mg/kg/injection, schedule: Q01DX009 (ip), vehicle: Klucel (hydroxypropylcellulose) (HPC)
[15] = dose: 50.0 mg/kg/injection, schedule: Q01DX009 (ip), vehicle: Klucel (hydroxypropylcellulose) (HPC)
[16] = dose: 100.0 mg/kg/injection, schedule: Q01DX009 (ip), vehicle: Klucel (hydroxypropylcellulose) (HPC)
[17] = dose: 200.0 mg/kg/injection, schedule: Q01DX009 (ip), vehicle: Klucel (hydroxypropylcellulose) (HPC)
[18] = dose: 400.0 mg/kg/injection, schedule: Q01DX009 (ip), vehicle: Klucel (hydroxypropylcellulose) (HPC)
[19] = dose: 12.5 mg/kg/injection, schedule: Q01DX009 (ip), vehicle: Klucel (hydroxypropylcellulose) (HPC)
[20] = dose: 200.0 mg/kg/injection, schedule: Q04DX002 (ip), vehicle: Klucel (hydroxypropylcellulose) (HPC)
[21] = dose: 400.0 mg/kg/injection, schedule: Q04DX002 (ip), vehicle: Klucel (hydroxypropylcellulose) (HPC)
[22] = dose: 100.0 mg/kg/injection, schedule: Q04DX002 (ip), vehicle: Klucel (hydroxypropylcellulose) (HPC)

Measured: T/C

Nc1nc(-c2ccccc2)c(CCCNc2ccc(C(=O)NC(CCC(=O)O)C(=O)O)cc2)c(=O)[nH]1 (stereo not given)
inactive: [1] 98 % of control | [2] 104 % of control | [3] 106 % of control | [4] 98 % of control | [5] 100 % of control | [6] 101 % of control | [7] 89 % of control

O=C(O)C(=O)C(Cl)Br (stereo not given)
inactive: dose: 12.5 mg/kg/injection, schedule: Q01DX001 (ip), vehicle: saline 111 % of control | dose: 25.0 mg/kg/injection, schedule: Q01DX001 (ip), vehicle: saline 118 % of control | [1] 111 % of control

CN(C)S(=O)(=O)c1ccc(NC(=O)OC2CCCCC2)cc1
inactive: [2] 96 % of control | [4] 91 % of control | [6] 96 % of control

CC(=NCc1ccccc1)C(C)(O)c1ccccc1 (stereo not given)
inactive: dose: 100.0 mg/kg/injection, schedule: Q01DX009 (ip), vehicle: other 105 % of control | dose: 100.0 mg/kg/injection, schedule: Q04DX003 (ip), vehicle: other 97 % of control | [8] 97 % of control | dose: 200.0 mg/kg/injection, schedule: Q01DX009 (ip), vehicle: other 107 % of control | dose: 200.0 mg/kg/injection, schedule: Q04DX003 (ip), vehicle: other 90 % of control | [9] 103 % of control | dose: 400.0 mg/kg/injection, schedule: Q01DX009 (ip), vehicle: other 100 % of control | dose: 400.0 mg/kg/injection, schedule: Q04DX003 (ip), vehicle: other 95 % of control | dose: 400.0 mg/kg/injection, schedule: Q04DX003 (ip), vehicle: saline 95 % of control

N#CC(C#N)=C(C#N)c1cccn1Cc1ccccc1
inactive: dose: 87.5 mg/kg/injection, schedule: Q01DX009 (ip), vehicle: carboxymethylcellulose (CMC) 96 % of control | dose: 175.0 mg/kg/injection, schedule: Q01DX009 (ip), vehicle: carboxymethylcellulose (CMC) 95 % of control | dose: 350.0 mg/kg/injection, schedule: Q01DX009 (ip), vehicle: carboxymethylcellulose (CMC) 90 % of control

CNC(=O)C1C2C=CC(CC2)C1C(=O)NC (stereo not given)
inactive: [3] 108 % of control | [5] 100 % of control | [7] 100 % of control

Oc1ccccc1-c1nnco1
inactive: [10] 94 % of control | [11] 92 % of control | [12] 94 % of control | [13] 94 % of control

CCC1N=C(N)N=C(N)N1c1ccc(Cl)cc1 (stereo not given)
inactive: dose: 75.0 mg/kg/injection, schedule: Q01DX001 (ip), vehicle: saline 100 % of control | dose: 150.0 mg/kg/injection, schedule: Q01DX001 (ip), vehicle: saline 98 % of control

CCN(CC)C(C)CN1c2ccccc2Sc2ccccc21 (stereo not given)
inactive: [14] 97 % of control | dose: 25.0 mg/kg/injection, schedule: Q04DX003 (ip), vehicle: saline 88 % of control | [15] 94 % of control | [16] 103 % of control | [8] 96 % of control | [9] 93 % of control

COc1cc(-c2ccc(N)c(OC)c2)ccc1N
inactive: dose: 62.5 mg/kg/injection, schedule: Q01DX Z (ip), vehicle: saline 90 % of control | dose: 222.0 mg/kg/injection, schedule: Q01DX Z (ip), vehicle: methylcellulose (MC) 108 % of control | dose: 333.0 mg/kg/injection, schedule: Q01DX Z (ip), vehicle: methylcellulose (MC) 90 % of control

C=CC(O)CCCCCC (stereo not given)
inactive: [10] 97 % of control | [11] 101 % of control | [12] 95 % of control | [13] 103 % of control

CC(C)(C)C(=O)CC(=O)C(C)(C)C.CC(C)(C)C(=O)CC(=O)C(C)(C)C.CC(C)(C)C(=O)CC(=O)C(C)(C)C.[Tb]
inactive: [3] 93 % of control | [5] 93 % of control | [7] 94 % of control

O=C(COc1ccccc1)CC(O)(C(F)(F)F)C(F)(F)F
inactive: [3] 97 % of control | [5] 92 % of control

Cc1cc(C)c(NC(=O)C(Br)C(Br)c2ccccc2)c(C)c1 (stereo not given)
inactive: [16] 98 % of control | [17] 98 % of control | [18] 98 % of control

O=C1c2cccc3cccc(c23)C(=O)N1NCCO
inactive: [16] 93 % of control | [17] 89 % of control

[BH3-][NH2+]c1cccc([NH2+][BH3-])c1
inactive: [2] 100 % of control | [4] 96 % of control | [6] 94 % of control

CCCCCCCCCCCC[N+](C)(C)Cc1ccccc1 (tested in a mixture with another compound)
inactive: dose: 2.0 mg/kg/injection, schedule: Q01DX015 (ip), vehicle: saline 105 % of control | dose: 4.0 mg/kg/injection, schedule: Q01DX015 (ip), vehicle: saline 94 % of control | dose: 8.0 mg/kg/injection, schedule: Q01DX015 (ip), vehicle: saline 103 % of control

CCCCCCCCCCCc1nc(N)nc(NCCCC)n1
inactive: [19] 97 % of control | [14] 96 % of control | dose: 25.0 mg/kg/injection, schedule: Q04DX002 (ip), vehicle: Klucel (hydroxypropylcellulose) (HPC) 93 % of control | [15] 86 % of control | dose: 50.0 mg/kg/injection, schedule: Q04DX002 (ip), vehicle: Klucel (hydroxypropylcellulose) (HPC) 96 % of control | [20] 89 % of control | [21] 89 % of control

Cc1ccc(NC(=O)c2cccc(F)c2)cc1Cl
inactive: dose: 100.0 mg/kg/injection, schedule: Q01DX001 (ip), vehicle: Klucel (hydroxypropylcellulose) (HPC) 97 % of control | [16] 94 % of control and 92 % of control | [22] 101 % of control and 104 % of control | dose: 200.0 mg/kg/injection, schedule: Q01DX001 (ip), vehicle: Klucel (hydroxypropylcellulose) (HPC) 100 % of control | [17] 105 % of control and 92 % of control | [20] 96 % of control and 104 % of control | dose: 400.0 mg/kg/injection, schedule: Q01DX001 (ip), vehicle: Klucel (hydroxypropylcellulose) (HPC) 100 % of control | [18] 97 % of control and 92 % of control | [21] 104 % of control and 109 % of control

CN(C)CCCNC(CC#N)CCC#N (stereo not given)
inactive: dose: 50.0 mg/kg/injection, schedule: Q01DX009 (ip), vehicle: saline 91 % of control | dose: 100.0 mg/kg/injection, schedule: Q01DX009 (ip), vehicle: saline 92 % of control | dose: 200.0 mg/kg/injection, schedule: Q01DX009 (ip), vehicle: saline 92 % of control

NNC(=O)c1cc(Cl)ccn1
inactive: [3] 96 % of control | [5] 102 % of control | [7] 98 % of control

COc1ccc(NC(=O)N2CCOCC2)cc1OC
inactive: [3] 102 % of control | [5] 96 % of control | [7] 89 % of control

CCc1ccccc1NC(=O)Sc1ccccc1C
inactive: [16] 90 % of control | dose: 100.0 mg/kg/injection, schedule: Q04DX003 (ip), vehicle: Klucel (hydroxypropylcellulose) (HPC) 110 % of control | [17] 87 % of control | dose: 200.0 mg/kg/injection, schedule: Q04DX003 (ip), vehicle: Klucel (hydroxypropylcellulose) (HPC) 102 % of control | dose: 400.0 mg/kg/injection, schedule: Q04DX003 (ip), vehicle: Klucel (hydroxypropylcellulose) (HPC) 100 % of control

O=C(Nc1cccc(Cl)c1)Oc1ccc(C2CCCCC2)cc1
inactive: [22] 104 % of control | [20] 99 % of control | [21] 101 % of control

Cc1ccc(SCCN=C(N)CSS(=O)(=O)O)cc1
inactive: [19] 94 % of control | [14] 107 % of control | [22] 92 % of control | [20] 101 % of control | [21] 92 % of control

CCCC1(C)NC(=O)NC1=O (stereo not given)
inactive: dose: 100.0 mg/kg/injection, schedule: Q01DX009 (ip), vehicle: saline with Tween-80 97 % of control | [3] 110 % of control | dose: 200.0 mg/kg/injection, schedule: Q01DX009 (ip), vehicle: saline with Tween-80 98 % of control | [5] 104 % of control | dose: 400.0 mg/kg/injection, schedule: Q01DX009 (ip), vehicle: saline with Tween-80 93 % of control | [7] 102 % of control

Cc1cc(C)c2c(c1)C/C2=N\O
inactive: [22] 106 % of control | [20] 106 % of control | [21] 103 % of control
